Source: article PMC12198282, “Application of a high-density microelectrode array assay using a 3D human iPSC-derived brain microphysiological system model for in vitro neurotoxicity screening of environmental compounds” (Archives of Toxicology, 2025)
pEC50: −log10 of the molar value. Like-named read-outs stand apart in the source and are kept apart here.

Tests used:
[1] = system: human iPSC-derived 3D BrainSpheres; assay: BrainSphere MEA assay (HD-MEA, 13-day exposure, concentration-response); assay type: cell-based; details: for AC50: concentration at 50% maximal activity, Supplement 3 prints it also for curves with hit call 0; for hitc Mean.Spheroid.Burst.Duration: key: 1 (active); 0 (inactive); for hitc Mean.Spheroid.Burst.ISI: key: 1 (active); 0 (inactive); for hitc Mean.Spheroid.Burst.Peak.Firing.Rate: key: 1 (active); 0 (inactive); for hitc Mean.Spheroid.Firing.Rate: key: 1 (active); 0 (inactive); for hitc Mean.Spheroid.IBI: key: 1 (active); 0 (inactive); for hitc Mean.Spheroid.Nonburst.ISI: key: 1 (active); 0 (inactive); for hitc Mean.Spheroid.Spikes.per.Burst.per.Electrode: key: 1 (active); 0 (inactive); for hitc Mean.Spheroid.Spikes.per.Burst: key: 1 (active); 0 (inactive); for hitc Spheroid.Burst.Frequency: key: 1 (active); 0 (inactive); for hitc Spheroid.Spike.Amplitude.90th.Percentile: key: 1 (active); 0 (inactive)
Protocol: A volume of 1 ml of Tergazyme (1% solution in deionized water) was added to each well of the MaxTwo 6-Well Plate (MaxWell Biosystems) and incubated overnight under constant gyratory shaking (88 RPM) at 37 °C and 5% CO2. The next day, Tergazyme solution was removed, and plates were washed with distilled water and ethanol. After remaining ethanol was evaporated, wells were washed with PBS. Then, 200 µl of Poly-D-Lysine (Gibco, A38904 - 01) was added on top of the electrodes and incubated at 37 °C and 5% CO2 for 3 h (humidified). Poly-D-Lysine was then removed, and wells were coated with 100 µl of 0.1 mg/ml laminin coating solution (Sigma-Aldrich, L2020 - 1 mg) and incubated for 2 h at 37 ℃ and 5% CO2 (humidified). The laminin was removed after incubation. Using a 1 ml micropipette, 1 ml of medium containing BrainSpheres (7 weeks differentiated), approximately 25 BrainSpheres per ml, was plated on top of the HD-MEA chip (Fig. 1A). Afterwards, the plate was placed in an incubator at 37 °C and 5% CO2 and moved in circles to accumulate the BrainSpheres on top of the electrode area (Fig. 1A). The plate was kept in an incubator (humidified) for 2 days to allow attachment of the BrainSpheres with no gyratory shaking of the plates.
The MaxTwo high-density microelectrode array system (MaxWell Biosystems AG, Zurich, Switzerland) was used to measure neural activity with MaxTwo 6-well plates, where every well includes an integrated chip with 26,400 platinum electrodes arranged in an area of 3.85 × 2.10 mm^2 ([…]) (Muller et al. [2015]). The data were recorded and analyzed with the MaxLab Live Software (version 22.2.22). First, the MaxLab live ActivityScan Assay was used to identify the activity and positioning of the BrainSpheres on the array by scanning all the 26,400 electrodes in 29 configurations in a well (Assay Parameters: Configuration = Full; Recording time per configuration = 60 s (s)). The settings gain = 512, high-pass-filter (HPF): ~ 1 Hz and spike threshold = 5 X root-mean square (RMS) noise were used for all HD-MEA recordings. Circular regions of interest (ROI) were manually selected in the Activity Map where neuronal activity was apparent by an increased activity (Fig. 2). Over the course of the 13-day experiment, the same selected regions and electrodes were measured using the MaxLab Live Network Assay (600 s recording time).
A custom analysis framework was used to extract the MaxLab Live neuronal metrics for the individual BrainSpheres. For this, electrodes comprising a single ROI (i.e., individual BrainSphere; Fig. 2D) were grouped using distance-based clustering (fcluster method of Scipy library, Python 3.7) and neural metrics were calculated for the clustered electrodes for every ROI separately. Figure 2E presents a raster plot illustrating the activity associated with individual Regions of Interest (ROIs). […] Ten MaxLab Live neural metrics (endpoints) were evaluated from the MaxLab live ActivityScan and Network Assay in this study. See Table 3 for the endpoint definitions, tuned parameters, and activity type (general versus network connectivity).
The BrainSphere MEA assay measured changes in neural activity during a 13-day chemical exposure. The first recording day of the concentration–response screening protocol (day of exposure (DOE) 0) occurred after 7 weeks of BrainSphere differentiation, 48 h after plating on HD-MEA plates (Fig. 1B). The study included at least three biological replicates (one well per plate) from separate experiments (e.g., three different plates on three different days) and each well included multiple BrainSpheres which were considered technical replicates.

2D rat cortical cultures [2] = details: cited from earlier work
2D rat cortical cultures [3] = details: cytotoxicity LDH, cited from earlier work
[4] = AUC over 13-day exposure, tcplfit2
[5] = tcplfit2 BMD at benchmark response (1.349*SD of baseline controls)
[6] = tcplfit2 output ACC, activity cutoff in Supplemental Table 1
[7] = top of winning model, response normalized as percent of vehicle control, negative = decrease

[CH3][Hg][Cl] [Methylmercury]
pEC50 ([1]; 5th percentile across active AC50 values per chemical, read-out: Minimum potency): 5.62
Difference of minimum potency between BrainSphere MEA assay and rNFA ([1]; 5th percentile of AC50 values by chemical, above 0.5 = more potent in the rNFA): more than 0.5 log10 µM
hitc Mean.Spheroid.Burst.Duration [1, 4]: 1
hitc Mean.Spheroid.Burst.ISI [1, 4]: 1
hitc Mean.Spheroid.Burst.Peak.Firing.Rate [1, 4]: 1
hitc Mean.Spheroid.Firing.Rate [1, 4]: 1
hitc Mean.Spheroid.IBI [1, 4]: 1
hitc Mean.Spheroid.Nonburst.ISI [1, 4]: 1
hitc Mean.Spheroid.Spikes.per.Burst [1, 4]: 1
hitc Mean.Spheroid.Spikes.per.Burst.per.Electrode [1, 4]: 1
hitc Spheroid.Burst.Frequency [1, 4]: 1
hitc Spheroid.Spike.Amplitude.90th.Percentile [1, 4]: 1
Bioactivity trend over time for MFR, mean spike amplitude and burst frequency (qualitative) ([1]; DOE 0-13, highest tested concentrations, Fig. 3): appeared to decrease activity
AC50 ([1]; listed as Methylmercuric(II) chloride, read-out: ac50 Mean.Spheroid.Burst.Duration): 5.9 µM
AC50 ([1]; listed as Methylmercuric(II) chloride, read-out: ac50 Mean.Spheroid.Burst.ISI): 3.3 µM
AC50 ([1]; listed as Methylmercuric(II) chloride, read-out: ac50 Mean.Spheroid.Burst.Peak.Firing.Rate): 3 µM
AC50 ([1]; listed as Methylmercuric(II) chloride, read-out: ac50 Mean.Spheroid.Firing.Rate): 7.7 µM
AC50 ([1]; listed as Methylmercuric(II) chloride, read-out: ac50 Mean.Spheroid.IBI): 6.3 µM
AC50 ([1]; listed as Methylmercuric(II) chloride, read-out: ac50 Mean.Spheroid.Nonburst.ISI): 2.6 µM
AC50 ([1]; listed as Methylmercuric(II) chloride, read-out: ac50 Mean.Spheroid.Spikes.per.Burst): 7.9 µM
AC50 ([1]; listed as Methylmercuric(II) chloride, read-out: ac50 Mean.Spheroid.Spikes.per.Burst.per.Electrode): 6.5 µM
AC50 ([1]; listed as Methylmercuric(II) chloride, read-out: ac50 Spheroid.Burst.Frequency): 2.3 µM
AC50 ([1]; listed as Methylmercuric(II) chloride, read-out: ac50 Spheroid.Spike.Amplitude.90th.Percentile): 16 µM
AC50 ([1]; read-out: ac50 Mean.Spheroid.Burst.Duration): 5.91 µM
AC50 ([1]; read-out: ac50 Mean.Spheroid.Burst.ISI): 3.34 µM
AC50 ([1]; read-out: ac50 Mean.Spheroid.Burst.Peak.Firing.Rate): 3.02 µM
AC50 ([1]; read-out: ac50 Mean.Spheroid.Firing.Rate): 7.68 µM
AC50 ([1]; read-out: ac50 Mean.Spheroid.IBI): 6.32 µM
AC50 ([1]; read-out: ac50 Mean.Spheroid.Nonburst.ISI): 2.56 µM
AC50 ([1]; read-out: ac50 Mean.Spheroid.Spikes.per.Burst): 7.9 µM
AC50 ([1]; read-out: ac50 Mean.Spheroid.Spikes.per.Burst.per.Electrode): 6.46 µM
AC50 ([1]; read-out: ac50 Spheroid.Burst.Frequency): 2.29 µM
AC50 ([1]; read-out: ac50 Spheroid.Spike.Amplitude.90th.Percentile): 16 µM
pEC50 ([1]; mean across active AC50 values per chemical, read-out: Mean potency): 5.21
Percent active ([1]; metrics active out of the total number of metrics screened): 100%
BMD Mean.Spheroid.Burst.Duration [1, 5]: 5.5 µM
BMD Mean.Spheroid.Burst.ISI [1, 5]: 2.3 µM
BMD Mean.Spheroid.Burst.Peak.Firing.Rate [1, 5]: 2.6 µM
BMD Mean.Spheroid.Firing.Rate [1, 5]: 7.8 µM
BMD Mean.Spheroid.IBI [1, 5]: 5.9 µM
BMD Mean.Spheroid.Nonburst.ISI [1, 5]: 1.8 µM
BMD Mean.Spheroid.Spikes.per.Burst [1, 5]: 7.7 µM
BMD Mean.Spheroid.Spikes.per.Burst.per.Electrode [1, 5]: 6.2 µM
BMD Spheroid.Burst.Frequency [1, 5]: 2.4 µM
BMD Spheroid.Spike.Amplitude.90th.Percentile [1, 5]: 5.1 µM
ACC Mean.Spheroid.Burst.Duration [1, 6]: 5.4 µM
ACC Mean.Spheroid.Burst.ISI [1, 6]: 1.7 µM
ACC Mean.Spheroid.Burst.Peak.Firing.Rate [1, 6]: 2.5 µM
ACC Mean.Spheroid.Firing.Rate [1, 6]: 8.2 µM
ACC Mean.Spheroid.IBI [1, 6]: 6.3 µM
ACC Mean.Spheroid.Nonburst.ISI [1, 6]: 2.2 µM
ACC Mean.Spheroid.Spikes.per.Burst [1, 6]: 8 µM
ACC Mean.Spheroid.Spikes.per.Burst.per.Electrode [1, 6]: 6.4 µM
ACC Spheroid.Burst.Frequency [1, 6]: 2 µM
ACC Spheroid.Spike.Amplitude.90th.Percentile [1, 6]: 10 µM
Top Mean.Spheroid.Burst.Duration [1, 7]: −97
Top Mean.Spheroid.Burst.ISI [1, 7]: −99
Top Mean.Spheroid.Burst.Peak.Firing.Rate [1, 7]: −95
Top Mean.Spheroid.Firing.Rate [1, 7]: −88
Top Mean.Spheroid.IBI [1, 7]: −94
Top Mean.Spheroid.Nonburst.ISI [1, 7]: −100
Top Mean.Spheroid.Spikes.per.Burst [1, 7]: −100
Top Mean.Spheroid.Spikes.per.Burst.per.Electrode [1, 7]: −95
Top Spheroid.Burst.Frequency [1, 7]: −100
Top Spheroid.Spike.Amplitude.90th.Percentile [1, 7]: −21
Hits ([1]; total number of active endpoints out of 10 MEA activity metrics, 13-day exposure): 10
hitc CCTE_Shafer_MEA_dev_AB (2D rat cortical cultures [2]; rNFA mc5 hit call, cytotoxicity AlamarBlue): 1
AC50 (2D rat cortical cultures [2]; read-out: ac50 CCTE_Shafer_MEA_dev_AB, rNFA mc5, cytotoxicity AlamarBlue): 283 nM
Cytotoxicity in the resazurin assay of the rNFA (in words) (2D rat cortical cultures [2]; ref Brown et al. [2016], Carstens et al. [2022], Frank et al. [2017b], Shafer et al. [2019], ToxCast invitrodb (v4.2)): demonstrating cytotoxicity in the rNFA
hitc CCTE_Shafer_MEA_dev_LDH (2D rat cortical cultures [3]; rNFA mc5 hit call): 1
AC50 (2D rat cortical cultures [3]; read-out: ac50 CCTE_Shafer_MEA_dev_LDH, rNFA mc5): 182 nM
